System: rice
Assay: Low temperature assay on rice seedlings
Type: in vivo
Method: According to a low temperature assay, we measured parameters including plant height, number of leaf, area of leaf, number of tiller, weight of root at low temperature to completely determine effects of the natural brassinolide analogues on the resistance to low temperature of a plant.
The natural brassinolide analogues, BR1, BR2, BR3, BR4, BR5 and BR6, used herein, were those prepared by the method of Example 1. Respectively the analogues were dissolved into 95% (V/V) ethanol solution, and then diluted with pure water to 1 mg/L, 0.1 mg/L, 0.01 mg/L, 0.001 mg/L and 0.0001 mg/L. In addition, pure water was used as a control.
After rice seeds were disinfected by using 5% sodium hypochlorite solution treatment, they were rinsed with distilled water until their pH>7, placed into a petri dish in a dark incubator, and cultured by using water at 30° C.±2° C. for 9 days. Then respectively the nine-day-old etiolated seedlings of rice were immersed in the above solutions containing different concentrations of the natural brassinolide analogues or pure water, and cultured at the temperature of 1° C., 2° C., 3° C., 4° C. and 5° C. for 24 hr. The parameters including plant height, area of leaf and weight of root after 3, 6, 9 and 12 days and number of leaf and number of tiller after 12 days were measured.

For C=C(C(C)C)[C@@H](O)[C@H](O)[C@@H](C)[C@H]1CCC2C3COC(=O)C4C[C@H](O)[C@H](O)C[C@]4(C)C3CC[C@@]21C (stereo partly drawn) [BR3], the Area of leaf (0.0001 mg/l, 1 °C, 3 days) was 9.8 cm^2, the Height (0.0001 mg/l, 1 °C, 3 days) was 6.8 cm and the Weight of root (0.0001 mg/l, 1 °C, 3 days) was 2.8 g. It also gave an Area of leaf (0.0001 mg/l, 1 °C, 6 days) of 11 cm^2, a Height (0.0001 mg/l, 1 °C, 6 days) of 6.9 cm and a Weight of root (0.0001 mg/l, 1 °C, 6 days) of 3 g. For the same compound, the Area of leaf (0.0001 mg/l, 1 °C, 9 days) was 12.2 cm^2, the Height (0.0001 mg/l, 1 °C, 9 days) was 7.1 cm and the Weight of root (0.0001 mg/l, 1 °C, 9 days) was 3.4 g. It also gave an Area of leaf (0.0001 mg/l, 1 °C, 12 days) of 13.1 cm^2, a Height (0.0001 mg/l, 1 °C, 12 days) of 7.2 cm and a Number of leaf (0.0001 mg/l, 1 °C, 12 days) of 3. The Number of tiller (0.0001 mg/l, 1 °C, 12 days) was 3, the Weight of root (0.0001 mg/l, 1 °C, 12 days) was 3.9 g and the Area of leaf (0.0001 mg/l, 2 °C, 3 days) was 10 cm^2. It also gave a Height (0.0001 mg/l, 2 °C, 3 days) of 6.8 cm, a Weight of root (0.0001 mg/l, 2 °C, 3 days) of 2.8 g and an Area of leaf (0.0001 mg/l, 2 °C, 6 days) of 11.7 cm^2. For the same compound, the Height (0.0001 mg/l, 2 °C, 6 days) was 7 cm, the Weight of root (0.0001 mg/l, 2 °C, 6 days) was 3.0 g and the Area of leaf (0.0001 mg/l, 2 °C, 9 days) was 12.1 cm^2. The Height (0.0001 mg/l, 2 °C, 9 days) was 7.1 cm, the Weight of root (0.0001 mg/l, 2 °C, 9 days) was 3.2 g and the Area of leaf (0.0001 mg/l, 2 °C, 12 days) was 13 cm^2. The Height (0.0001 mg/l, 2 °C, 12 days) was 7.4 cm, the Number of leaf (0.0001 mg/l, 2 °C, 12 days) was 3 and the Number of tiller (0.0001 mg/l, 2 °C, 12 days) was 3. It also gave a Weight of root (0.0001 mg/l, 2 °C, 12 days) of 3.9 g, an Area of leaf (0.0001 mg/l, 3 °C, 3 days) of 10 cm^2 and a Height (0.0001 mg/l, 3 °C, 3 days) of 6.9 cm. For the same compound, the Weight of root (0.0001 mg/l, 3 °C, 3 days) was 2.5 g, the Area of leaf (0.0001 mg/l, 3 °C, 6 days) was 11.8 cm^2 and the Height (0.0001 mg/l, 3 °C, 6 days) was 7.1 cm. The Weight of root (0.0001 mg/l, 3 °C, 6 days) was 2.6 g, the Area of leaf (0.0001 mg/l, 3 °C, 9 days) was 12.1 cm^2 and the Height (0.0001 mg/l, 3 °C, 9 days) was 7.4 cm. For the same compound, the Weight of root (0.0001 mg/l, 3 °C, 9 days) was 2.9 g, the Area of leaf (0.0001 mg/l, 3 °C, 12 days) was 13.2 cm^2 and the Height (0.0001 mg/l, 3 °C, 12 days) was 7.5 cm. For the same compound, the Number of leaf (0.0001 mg/l, 3 °C, 12 days) was 3, the Number of tiller (0.0001 mg/l, 3 °C, 12 days) was 2 and the Weight of root (0.0001 mg/l, 3 °C, 12 days) was 2.9 g. It also gave an Area of leaf (0.0001 mg/l, 4 °C, 3 days) of 10 cm^2, a Height (0.0001 mg/l, 4 °C, 3 days) of 6.9 cm and a Weight of root (0.0001 mg/l, 4 °C, 3 days) of 2.5 g. For the same compound, the Area of leaf (0.0001 mg/l, 4 °C, 6 days) was 11.5 cm^2, the Height (0.0001 mg/l, 4 °C, 6 days) was 7.3 cm and the Weight of root (0.0001 mg/l, 4 °C, 6 days) was 2.6 g. For the same compound, the Area of leaf (0.0001 mg/l, 4 °C, 9 days) was 13 cm^2, the Height (0.0001 mg/l, 4 °C, 9 days) was 7.5 cm and the Weight of root (0.0001 mg/l, 4 °C, 9 days) was 2.9 g. For the same compound, the Area of leaf (0.0001 mg/l, 4 °C, 12 days) was 13.4 cm^2, the Height (0.0001 mg/l, 4 °C, 12 days) was 7.5 cm and the Number of leaf (0.0001 mg/l, 4 °C, 12 days) was 3. The Number of tiller (0.0001 mg/l, 4 °C, 12 days) was 2, the Weight of root (0.0001 mg/l, 4 °C, 12 days) was 2.9 g and the Area of leaf (0.0001 mg/l, 5 °C, 3 days) was 10.2 cm^2. For the same compound, the Height (0.0001 mg/l, 5 °C, 3 days) was 7.0 cm, the Weight of root (0.0001 mg/l, 5 °C, 3 days) was 2.5 g and the Area of leaf (0.0001 mg/l, 5 °C, 6 days) was 12 cm^2. The Height (0.0001 mg/l, 5 °C, 6 days) was 7.4 cm, the Weight of root (0.0001 mg/l, 5 °C, 6 days) was 2.5 g and the Area of leaf (0.0001 mg/l, 5 °C, 9 days) was 13.4 cm^2. The Height (0.0001 mg/l, 5 °C, 9 days) was 7.5 cm, the Weight of root (0.0001 mg/l, 5 °C, 9 days) was 2.9 g and the Area of leaf (0.0001 mg/l, 5 °C, 12 days) was 14 cm^2. The Height (0.0001 mg/l, 5 °C, 12 days) was 7.7 cm, the Number of leaf (0.0001 mg/l, 5 °C, 12 days) was 3 and the Number of tiller (0.0001 mg/l, 5 °C, 12 days) was 2. For the same compound, the Weight of root (0.0001 mg/l, 5 °C, 12 days) was 3.0 g, the Area of leaf (0.001 mg/l, 1 °C, 3 days) was 10 cm^2 and the Height (0.001 mg/l, 1 °C, 3 days) was 6.9 cm. The Weight of root (0.001 mg/l, 1 °C, 3 days) was 2.8 g, the Area of leaf (0.001 mg/l, 1 °C, 6 days) was 11.3 cm^2 and the Height (0.001 mg/l, 1 °C, 6 days) was 7.1 cm. The Weight of root (0.001 mg/l, 1 °C, 6 days) was 3.1 g, the Area of leaf (0.001 mg/l, 1 °C, 9 days) was 12.6 cm^2 and the Height (0.001 mg/l, 1 °C, 9 days) was 7.1 cm. It also gave a Weight of root (0.001 mg/l, 1 °C, 9 days) of 3.2 g, an Area of leaf (0.001 mg/l, 1 °C, 12 days) of 13 cm^2 and a Height (0.001 mg/l, 1 °C, 12 days) of 7.3 cm. It also gave a Number of leaf (0.001 mg/l, 1 °C, 12 days) of 3, a Number of tiller (0.001 mg/l, 1 °C, 12 days) of 3 and a Weight of root (0.001 mg/l, 1 °C, 12 days) of 3.9 g. The Area of leaf (0.001 mg/l, 2 °C, 3 days) was 9.8 cm^2, the Height (0.001 mg/l, 2 °C, 3 days) was 6.9 cm and the Weight of root (0.001 mg/l, 2 °C, 3 days) was 2.8 g.

Reference: patent US9326506B2, “Preparation method, agricultural composition and applications of natural brassinolide analogs” (CHENGDU NEWSUN CROPSCIENCE CO., LTD, priority 2012, dated 2016)
